Literature values, collected in US20050096391A1 (priority 2003, published 2005).

Key:
[1] = oral
[2] = pH of 7.0
[3] = system: low-density lipoprotein (LDL)-cholesterol; conditions: compared with atorvastatin, simvastatin, pravastatin

| Compound | solubility in ethanol (ethanol) | solubility in methanol (methanol) | solubility in water (water) | bioavailability [1] | partition coefficient (octanol/water) [2] | reductions in low-density lipoprotein (LDL)-cholesterol [3] |
| --- | --- | --- | --- | --- | --- | --- |
| CC(C)c1nc(N(C)S(C)(=O)=O)nc(-c2ccc(F)cc2)c1/C=C/[C@@H](O)C[C@@H](O)CC(=O)[O-].CC(C)c1nc(N(C)S(C)(=O)=O)nc(-c2ccc(F)cc2)c1/C=C/[C@@H](O)C[C@@H](O)CC(=O)[O-].[Ca+2] [Rosuvastatin calcium] | slightly soluble | sparingly soluble | sparingly soluble | – | – | – |
| CC(C)c1nc(N(C)S(C)(=O)=O)nc(-c2ccc(F)cc2)c1/C=C/[C@@H](O)C[C@@H](O)CC(=O)O [Rosuvastatin, (E)-7-[4-(4-fluorophenyl)-6 isopropyl-2-[methyl (methyl-sulfonyl)amino]pyrimidin-5-yl](3R,5S)-3,5-dihydroxyhept-6-enoic acid] | – | – | – | approximately 20% | 0.13 | greater reductions in low-density lipoprotein (LDL)-cholesterol than atorvastatin, simvastatin, and pravastatin |
